Experimental data published in patent US12685775B2, “Oligonucleotides with nucleoside analogs” (Sirnaomics, Inc., priority 2019, dated 2026).
“Also recorded” adds a separate entry of the source. Read-outs that look alike come from different tables or passages of the source.

How the values were obtained:
Format in all cases: cell-based
MiaPaca-2 = MiaPaca-2 cell viability, 96 h exposure (Examples 8 and 9); conditions: for maximal inhibition of cell viability: 96 h
Protocol: (§1) Pancreatic cancer BxPC3 cells were seeded at 1000 cells/ml and grown as monolayers in 384 well plates. The cells were transfected with the siRNAs indicated against CHK1 or Rad17 using Lipofectamine (ThermoFisher) or were treated with gemcitabine at the concentrations indicated on the X axis. After a 96 h incubation at 37° C. with 5% CO2, cell viability was determined using Cell Titer Glo (Perkin Elmer) by monitoring the luminescence signal produced by the reagent in a Perkin Elmer Envision plate reader equipped with Ultrasensitive luminescence detection optics. From the figure we can see that gemcitabine (GEM) produces a dose-dependent inhibition of cell viability with an IC50 of ~6 nM and maximal efficacy of >80% cell killing. A 25mer blunt ended siRNA against RAD17 produced a dose dependent inhibition in cell viability with a maximum efficacy at only 60% reduction in cell viability and an IC50 of ~5 nM. […] The IC50 for the latter siRNA was similar to that for the Azorsa sequence (~0.3 nM).
Using gemcitabine or the same unmodified siRNAs and exposure time (96 h) as used against BxPC3 cells (FIG. 1), we studied the effect on another pancreatic cancer cell line—MiaPaca-2.

[1] = test system: BxPC3 pancreatic cancer cell; test: cells; conditions: for IC50: BxPC3, 120 h exposure, read-out: IC50, cell viability
Protocol: The siRNA sequences shown in Table 2 were tested for efficacy and potency against BxPC3 pancreatic cancer cell viability after 120 h exposure.

BxPC3 cells [2] = test: BxPC3 cell viability after 72 hrs treatment, CTG2 reagent (Example 1); conditions: Homo sapiens, BXPC-3, BxPC3, 72 h
Protocol: BxPC3 cells were seeded in two 384-well plates at 500 cells/well. On the next day cells were treated with various concentrations of CID2A, CID2S, CID4 siRNAs (formulated with Lipofectamine RNAiMAX) or gemcitabine (0.1-1000 nM) for 72 hrs. After incubation at 37° C. for 72 hrs, the number of viable cells was assessed using CTG2 reagent. Non-treated cells were set as 100%.

BxPC3 cells [3] = test: BxPC3 cell viability after 120 h exposure, Cell Titer Glo (Example 4, polyGEM constructs)
Protocol: BxPC3 cells seeded in 384 well plates at 1000 cells/well were transfected with siRNA constructs or exposed to gemcitabine at the concentrations indicated in the figure. The samples tested were gemcitabine alone (GEM), the unmodified 19mer siRNA against CHK1 (CHK-AZ) and the same sequences of the siRNA but with either 2 (poly-2), 4 (poly-4) or 6 (poly-6) gemcitabine nucleotides added at the 3′ end of the Sense strand prior to annealing with the same antisense strand. After 120 h exposure to the various agents, the cell viability was determined by addition of Cell Titer Glo (PE), plates were shaken for 10-20 mins and then luminescence signal correlating with cell viability was determined in a PE Envision plate reader.
It was reasoned that, since such an improvement in efficacy against pancreatic cancer cell viability was obtained when adding 2 GEM nucleotides onto the SS of an siRNA, then adding additional GEMs would further improve the efficacy and/or potency of the siRNAs. To this end the unmodified 19mer siRNA (CHK-AZ) was compared with the same sequence where 2Gems were added at the 3′ end of the SS (poly-2), 4GEMs were added (poly-4) or 6 GEMs were added (poly-6). These sequences were compared with gemcitabine alone (GEM). The experiment was performed by transfection of the siRNAs in BxPC3 cells as for FIG. 1 but the exposure time prior to measurement of cell viability was 120 h. […]

BxPC3 cells [4] = test: BxPC3 cell viability 96 h after transfection/treatment, Cell Titer Glo (Examples 2 and 3); conditions: for IC50: read-out: IC50, inhibition of cell viability; for inhibition in cell viability at 0.1 nM: BxPC3, 0.1 nM, GEM-modified siRNAs
Protocol: as §1
SiRNAs were synthesized with gemcitabine nucleotide amidites added at the 3′ end of each of the Sense strands for the siRNA sequences indicated. SiRNAs were transfected into the cells and incubated as detailed in FIG. 1. Maximal efficacy of all sequences was now improved to >95% inhibition of cell viability at concentrations above 10 nM. […] The gemcitabine nucleotides was examined to see if it could replace the Cytidine nucleotides within the siRNA sequence. […] FIGS. 12a-12d show the effect of adding 2 gemcitabine nucleotides at the 3′ end of the Sense strand of each siRNA on potency and efficacy.

BxPC3 cells [5] = test: Screen of siRNA sequences designed against CHK1: % viable cells 72 h after transfection, BxPC3
Protocol: (§2) The percentage of viable cells 72 h after transfection of the siRNA sequences into cells in culture is shown (top panel—BxPC3 cells; lower panel—CFPAC cells). 100% viability is defined as that in the presence of a NON-silencing control siRNA (NS). CHK1_AZ (AZ) was tested as a comparator. CD=Cell Death siRNAs—known to produce maximal killing of many cell types when transfected into cells.

CHK1 = test: siRNA validation of target silencing (qRTPCR); conditions: previous studies
Protocol: These experiments were performed using the siRNAs shown below. The degree of gene target silencing was measured in cells transfected with the siRNAs at (50 nM) and the degree of gene silencing was measured using qRTPCR (using Beta-actin as a control housekeeping gene for normalization of the data).

CFPAC cells = test: Screen of siRNA sequences designed against CHK1: % viable cells 72 h after transfection, CFPAC
Protocol: as §2

Compound: Nc1ccn([C@@H]2O[C@H](CO)[C@@H](O)C2(F)F)c(=O)n1 [gemcitabine, 2′,2′-difluoro 2′-deoxycytidine, reference compound]
- inhibition at 0.1 µM (MiaPaca-2; Homo sapiens, MIA PaCa-2, 100 nM, read-out: maximal inhibition at 100 nM): 90%
- IC50 ([1]; Homo sapiens, BXPC-3): ~5 nM
- maximal efficacy, inhibition of cell viability ([1]; human, 120 h, 100 nM): ~ 85%
- viability at 0.05 µM (BxPC3 cells [2]; 50 nM): 26%
- IC50 (BxPC3 cells [2]; no Lipofectamine, read-out: IC50, reduction in cell viability): ~7 nM
- reduction in cell viability at concentrations above 50 nM (BxPC3 cells [3]; BxPC3, 120 h, >50 nM): 100%
- IC50 (BxPC3 cells [3]; Homo sapiens, BXPC-3, BxPC3, 120 h exposure): 3 nM
- maximal efficacy (reduction/inhibition of cell viability, cell killing) (BxPC3 cells [4]; BxPC3, 96 h): > 80%
- IC50 (BxPC3 cells [4]; Homo sapiens, BXPC-3, BxPC3, 96 h): ~6 nM

Compound: CHK_4: siRNA designed against CHK1, sense strand CCTGTGGAATAGTACTTACTGCAAT (SEQ ID NO: 9); same sequence as SLP49-1 (antisense strand not cited, further chemistry not given here)
- potency on BxPC3 cell viability (BxPC3 cells [5]): most potent effect; also recorded: greater potency than CHK-AZ
- % viable BxPC3 cells at 72 h (BxPC3 cells [5]; 100% = non-silencing control siRNA): 24%
- potency on BxPC3 cell viability (BxPC3 cells [5]; listed as #4): #4 sequence CCTGTGGAATAGTACTTACTGCAAT (SEQ ID NO: 9) seemed to be the best.
- silencing of CHK1 gene (CHK1): better silencing than the Azorsa sequence
- effect on CFPAC cell viability (CFPAC cells): very pronounced effect on cell viability

Compound: SLP49-1: Unmodified 25mer blunt ended CHK1 siRNA, sense CCUGUGGAAUAGUACUUACUGCAAU (SEQ ID NO: 18) (antisense AUUGCAGUAAGUACUAUUCCACAGG; unmodified RNA)
- maximal inhibition of cell viability (MiaPaca-2; listed as 25mer blunt ended siRNA designed against CHK1): ~ 80%
- maximal inhibition of cell viability (MiaPaca-2; listed as Chk1_de): 80%
- Efficacy at 100 nM ([1]; BxPC3, 120 h, 100 nM): 90%
- IC50 [1]: 0.25 nM
- inhibition of cell viability at 100 nM (BxPC3 cells [4]; BxPC3, 96 h, 100 nM): ~ 90%
- IC50 (BxPC3 cells [4]; BxPC3, 96 h): ~0.3 nM

Compound: SLP49-2: 25mer CHK1 siRNA with 2 GEMs attached at the 3′ end of the Sense Strand (SEQ ID NO: 19) (sense CCUGUGGAAUAGUACUUACUGCAAUCC; antisense AUUGCAGUAAGUACUAUUCCACAGG; 25mer siRNA, two gemcitabine nucleotides added at sense strand 3' end, further chemistry not given here)
- maximal inhibition at 10 nM (MiaPaca-2; 10 nM): ~ 100%
- efficacy (inhibition of cell viability / cell killing) at 30 nM [1]: ~ 100%
- inhibition in cell viability at 0.1 nM (BxPC3 cells [4]): 31%

Compound: SLP49-3: Unlabeled 25mer blunt ended siRNA against RAD17, sense CCAACAAUUAUGAUGAAAUUUCUUA (SEQ ID NO: 23) (antisense UAAGAAAUUUCAUCAUAAUUGUUGG; further chemistry not given here)
- maximal inhibition of cell viability (MiaPaca-2; listed as RAD17 siRNA): ~ 30%
- maximal inhibition of cell viability (MiaPaca-2; listed as unmodified 25mer siRNA targeting RAD17): ~ 25%
- maximal efficacy, inhibition of cell viability [1]: 60%
- IC50 [1]: ~4 nM
- maximal efficacy (reduction/inhibition of cell viability, cell killing) (BxPC3 cells [4]; BxPC3, 96 h): 60%
- maximal efficacy (reduction/inhibition of cell viability, cell killing) (BxPC3 cells [4]; BxPC3, 96 h, listed as RAD17 siRNA): ~ 60%
- IC50 (BxPC3 cells [4]; BxPC3, 96 h): ~5 nM

Compound: SLP49-4: RAD17 25mer siRNA with 2 additional GEMs attached at the 3′ end of the SS (SEQ ID NO: 24) (sense CCAACAAUUAUGAUGAAAUUUCUUACC; antisense UAAGAAAUUUCAUCAUAAUUGUUGG; 25mer siRNA, two gemcitabine nucleotides added at sense strand 3' end, further chemistry not given here)
- inhibition at 30 nM (MiaPaca-2; 30 nM): 93%
- efficacy (inhibition of cell viability / cell killing) at 30 nM [1]: 100%
- IC50 [1]: ~4 nM
- inhibition in cell viability at 0.1 nM (BxPC3 cells [4]): no effect on cell viability

Compound: SLP49-5: CHK1 siRNA, SS shortened by first 2 bases, 3 GEMs in place of Cs (SEQ ID NO: 20) (sense UGUGGAAUAGUACUUACUGCAAU; antisense AUUGCAGUAAGUACUAUUCCACAGG; three gemcitabines replace cytidines in sense strand, positions not given here)
- efficacy (inhibition of cell viability / cell killing) at 30 nM [1]: 83-97%
- IC50 [1]: ~3 nM

Compound: SLP49-6: CHK1 siRNA, SS shortened by first 2 bases, containing 2 Gems (SEQ ID NO: 21) (sense UGUGGAAUAGUACUUACUGCAAUCC; antisense AUUGCAGUAAGUACUAUUCCACAGG; sense strand contains two gemcitabines, positions not given here, further chemistry not given here)
- efficacy (inhibition of cell viability / cell killing) at 30 nM [1]: 83-97%
- IC50 [1]: ~3 nM
